The conditions of data set [1]: cited from earlier work.
Data set [2] has as its system MDA-MB-468 breast cancer xenograft. Kind of data set: In vivo tumor regression study, subcutaneous administration. The settings on record: 0.75 mg/kg. An excerpt:
Since there was no statistical difference in efficacy observed between FSI-Rapa and FAF-Rapa intravenously, Applicants next employed SC route of administration in the same MDA-MB-468 xenograft mouse model (FIGS. 5A-5H). The rationale behind exploring SC route was to distinguish the uptake and bio distribution of different FKBP-ELPs from the site of injection into the systemic circulation. […] SC route further presents a convenient administration method compared to IV route with more clinical relevance and has been FDA approved for monoclonal antibodies and biotherapeutics.
The comparative tumor regression study consisted of 5 groups: PBS, Free Rapa, FAF-Rapa, FA-Rapa, and FSI-Rapa at the same maximum tolerated dose of 0.75 mg/kg (n=6-8/group). All treatments were done subcutaneously in the right flank above the hind leg. […] Because of the toxic side effects, mice were thereafter treated with free Rapa in DMSO:EtOH:Cremophore-EL:PBS formulation in 1:1:2:6% v/v ratio. […] However, the mice gradually gained back the lost BW which enabled us to continue the treatment with the Cremophore formulation. To prevent further local discomfort to mice, a different site of injection was chosen each time spanning the entire flank region for free Rapa injections. […] There was no local bruising or scabs observed with any of the FKBP-ELP-Rapa formulations which made the treatment easier and at the same site of injection throughout the study.
All animal experiments were conducted as per the guidelines of the American Association of Laboratory Animal Care under an USC approved protocol. MDA-MB-468 cells (American Type Tissue Culture Collection) were cultured at 37° C. with 5% CO2 in Dulbecco's modified Eagle's medium (DMEM)/Ham's F-12 media (Caisson) supplemented with 10% fetal bovine serum. The cells were sent for screening against all major mouse pathogens and human blood borne pathogens (Charles River) prior to implantation. A single injection of MDA-MB-468 cells (1-2×10^6 cells in 100 μL fetal bovine serum free DMEM media) was implanted into the left mammary fat pad of 7-8 weeks old female nude (nu/nu) athymic mice (Harlan, Inc.) Tumors were allowed to grow to a size of ˜50-100 mm^3 and mice were randomized blindly into respective groups before start of treatment. […] BW and tumor size were measured thrice a week on the same day of injections. Tumor size was measured using Vernier calipers and tumor volume was calculated using the following equation:
where a and b represents smaller and bigger length respectively. […] Tumor burden was calculated by determining the trapezoidal area under the growth curve for each mouse by using the following equation: […]

Consider one compound from patent publication US20190290726A1, “PROTEIN POLYMER FUSIONS FOR SUBCUTANEOUS DELIVERY OF SMALL MOLECULES” (University of Southern California, priority 2016, published 2019).

Values after ≈ are worked out from the molar mass of the structure shown. “Also recorded” adds a separate entry of the source.

For `CO[C@H]1C[C@@H]2CC[C@@H](C)[C@@](O)(O2)C(=O)C(=O)N2CCCC[C@H]2C(=O)O[C@H]([C@H](C)C[C@@H]2CC[C@@H](O)[C@H](OC)C2)CC(=O)[C@H](C)/C=C(\C)[C@@H](O)[C@@H](OC)C(=O)[C@H](C)C[C@H](C)/C=C/C=C/C=C/1C` [Free Rapa, (3S,6R,7E,9R,10R,12R,14S,15E,17E,19E,21S,23S,26R,27R,34aS)-9,10,12,13,14,21,22,23,24,25,26,27,32,33,34,34a-hexadecahydro-9,27-dihydroxy-3-[(1R)-2-[(1S,3R,4R)-4-hydroxy-3-methoxycyclohexyl]-1-methylethyl]-10,21-dimethoxy-6,8,12,14,20,26-hexamethyl-23,27-epoxy-3H-pyrido[2,1-c][1,4]-oxaazacyclohentriacontine-1,5,11,28,29(4H,6H,31H)-pentone], the aqueous solubility (commonly how much of the substance goes into solution per volume) in data set [1] is approximately 10 µM (≈ 9.14 µg/mL). Moreover, the “tumor burden compared to PBS group” value in data set [2] (SC, Tukey post hoc, last day of treatment (day 50)) is “statistically significance compared to PBS group; also recorded: significantly lower compared to PBS”. Further, the Kaplan-Meier survival analysis result in data set [2] (SC, endpoint 4 times increase in tumor volume) is recorded as “better anti-tumor efficacy than other groups”. Also, in data set [2] (mouse, in vivo, sc), the “drop in BW” value worked out at 10% and the “toxicity, local toxicity at the site of injection” value was “considerable local toxicity at site of subcutaneous injection”.
